According to ChEMBL document CHEMBL4699484, “Discovery of small molecule FLT3 inhibitors that are able to overcome drug-resistant mutations” (Bioorg Med Chem Lett, 2020):

How the values were obtained:
[1] = molecular target: T1, Receptor-type tyrosine-protein kinase FLT3 (Homo sapiens, UniProt P36888, ITD); assay type: cell-based, BaF3
Description: Inhibition of FLT3 ITD mutant (unknown origin) expressed in mouse BaF3 cells

BaF3 = test: cells; conditions: Mus musculus
Description: Cytotoxicity against mouse BaF3 cells assessed as reduction in cell viability

[2] = molecular target: Receptor-type tyrosine-protein kinase FLT3 (Homo sapiens, UniProt P36888, D835Y/ITD); assay type: cell-based, BaF3
Description: Inhibition of FLT3 ITD/D835Y double mutant (unknown origin) expressed in mouse BaF3 cells

[3] = molecular target: Receptor-type tyrosine-protein kinase FLT3 (Homo sapiens, UniProt P36888, F691L/ITD); assay type: cell-based, BaF3
Description: Inhibition of FLT3 ITD/F691L double mutant (unknown origin) expressed in mouse BaF3 cells

STF3A = test: (§1) Inhibition of Wnt/beta-Catenin signaling (unknown origin) expressed in STF3a cells incubated for 24 hrs by STF luciferase reporter gene assay; assay type: cell-based; conditions: Homo sapiens
[4] = as §1; assay type: cell-based; conditions: Homo sapiens
[5] = molecular target: T1, Receptor-type tyrosine-protein kinase FLT3; test: Inhibition of human partial length FLT3 ITD mutant expressed in bacterial expression system by Kinomescan method

SMILES	IC50 [1] [nM]	IC50 (BaF3) [nM]	IC50 [2] [nM]	IC50 [3] [nM]	IC50 [4] [nM]	inhibition (STF3A)	IC50 [5] [nM]
COc1cc2c(Oc3ccc(NC(=O)Nc4cc(C(C)(C)C)on4)cc3F)ccnc2cc1OCC(C)C	36.5	4820	62.4	127	–	–	–
COc1cc2nccc(Oc3ccc(NC(=O)Nc4cc(C(C)(C)C)on4)cc3F)c2cc1OC(C)C	6.88	2030	10.6	23.1	–	–	–
CCCOc1cc2c(Oc3ccc(NC(=O)Nc4cc(C(C)(C)C)on4)cc3F)ccnc2cc1OC	76.1	7770	160	296	–	–	–
COc1cc2nccc(Oc3ccc(NC(=O)Nc4cc(C(C)(C)C)on4)cc3F)c2cc1OC	0.072	1210	3.48	5.86	< 500	Dose-dependent effect	–
CC(C)(C)c1cc(NC(=O)Nc2ccc(Oc3ncnc4[nH]ncc34)c(F)c2)no1	0.038	3160	130	108	–	–	1.3
CCOc1cc2nccc(Oc3ccc(NC(=O)Nc4cc(C(C)(C)C)on4)cc3F)c2cc1OCC	3.08	3140	15.5	32.6	–	–	–
COc1cc2c(Oc3ccc(NC(=O)Nc4cc(C(C)(C)C)on4)cc3F)ncnc2cn1	1.2	3040	64.2	1020	–	–	–
CC(C)(C)c1cc(NC(=O)Nc2ccc(Oc3ccnc4cc(OCC5CCCC5)c(OCC5CCCC5)cc34)c(F)c2)no1	37.2	6500	27.9	38.9	–	–	–
COc1cc2c(Oc3ccc(NC(=O)Nc4cc(C(C)(C)C)on4)cc3F)ccnc2cc1OCC1CO1 (stereo not given)	2650	9200	3540	5270	–	–	–
CC(C)(C)c1cc(NC(=O)Nc2ccc(Oc3ccnc4[nH]ncc34)c(F)c2)no1	0.292	2620	34.3	35	–	–	–
COc1cc2c(Oc3ccc(NC(=O)Nc4cc(C(C)(C)C)on4)cc3F)ccnc2cc1OCCCN1CCOCC1	3.22	1100	5.09	9.93	–	–	–
CC(C)(C)c1cc(NC(=O)Nc2ccc(Oc3ccnc4nc[nH]c34)c(F)c2)no1	0.015	2080	12.4	18.6	–	–	–

Continued by falling IC50 [1], values first:

IC50 [1] [nM]	IC50 (BaF3) [nM]	IC50 [2] [nM]	IC50 [3] [nM]	IC50 [4] [nM]	SMILES	inhibition (STF3A)	IC50 [5] [nM]
1260	> 10000	> 10000	> 10000	–	CC(C)(C)c1cc(NC(=O)Nc2ccc(Oc3nccc4ccccc34)c(F)c2)no1	–	–
141	> 10000	741	1020	–	CC(C)(C)c1cc(NC(=O)Nc2ccc(Oc3ccnc4[nH]ccc34)c(F)c2)no1	–	–
66.5	5560	104	189	–	COc1cc2c(Oc3ccc(NC(=O)Nc4cc(C(C)(C)C)on4)cc3F)ccnc2cc1OCC1CCCC1	–	–
19.2	4940	14.9	54.3	–	CCCOc1cc2nccc(Oc3ccc(NC(=O)Nc4cc(C(C)(C)C)on4)cc3F)c2cc1OC	–	–
7.25	2880	10.9	29.9	–	CCOc1cc2c(Oc3ccc(NC(=O)Nc4cc(C(C)(C)C)on4)cc3F)ccnc2cc1OC	–	–
5.77	1840	6.28	16.8	–	COc1cc2nccc(Oc3ccc(NC(=O)Nc4cc(C(C)(C)C)on4)cc3F)c2cc1OCCCN1CCOCC1	–	–
5.2	1650	5.96	8.31	–	CCOc1cc2nccc(Oc3ccc(NC(=O)Nc4cc(C(C)(C)C)on4)cc3F)c2cc1OC	–	–
5.17	2000	11	16	–	COCCOc1cc2nccc(Oc3ccc(NC(=O)Nc4cc(C(C)(C)C)on4)cc3F)c2cc1OCCOC	–	–
4.91	3000	10.1	20.8	–	COCCOc1cc2c(Oc3ccc(NC(=O)Nc4cc(C(C)(C)C)on4)cc3F)ccnc2cc1OC	–	–
4.73	1130	5.35	11.9	–	COCCOc1cc2nccc(Oc3ccc(NC(=O)Nc4cc(C(C)(C)C)on4)cc3F)c2cc1OC	–	–
1.51	> 1990	7.93	13.8	–	COc1cc2ncnc(Oc3ccc(NC(=O)Nc4cc(C(C)(C)C)on4)cc3F)c2cc1OC	–	–
